SMILES strings stand for the structures.

The test deals with NCIH929.1 cells. As to the kind of experiment: Cell viability assay for Table 2 (CellTiter-Glo 2.0, ATP quantification, 96 hr). It is filed as cell-based. The conditions noted are these: 96 h, NCIH929.1 cell viability, 96 hr, top concentration 1 μM, 14 points half log titration; read-out: IC50. From the text: Cell Viability Assay for Table 2
CellTiter-Glo® 2.0 Assay was purchased from Promega (Madison, Wis., USA). NCIH929.1 cell line was purchased from ATCC (Manassas, Va., USA). Cell culture flasks and 384-well microplates were acquired from VWR (Radnor, Pa., USA).
In general terms: ATP-based viability assays read luminescence as a measure of living cells.
As usually defined, the IC50 is the midpoint of a concentration-inhibition curve. For `CC(C)(C)C1CCN(Cc2ccc(Cc3ccc4c5c(cccc35)C(=O)N4C3CCC(=O)NC3=O)cc2)CC1` (stereo not drawn) [Compound 158, 3-[6-[[4-[(4-tert-butyl-1-piperidyl)methyl]phenyl]methyl]-2-oxo-benzo[cd]indol-1-yl]piperidine-2,6-dione], the IC50 was less than 1 nM.
The same measure for `CN(C(=O)N1CCC(n2cc(Cc3ccc4c5c(cccc35)C(=O)N4C3CCC(=O)NC3=O)cn2)CC1)C(C)(C)C` (stereo not drawn) [Compound 132, N-tert-butyl-4-[4-[[1-(2,6-dioxo-3-piperidyl)-2-oxo-benzo[cd]indol-6-yl]methyl]pyrazol-1-yl]-N-methyl-piperidine-1-carboxamide]: less than 1 nM; for `O=C1CCC(N2C(=O)c3cccc4c(Cc5cnn(C6CCN(C(=O)c7ccccn7)CC6)c5)ccc2c34)C(=O)N1` (stereo not drawn) [Compound 46, 3-(2-oxo-6-((1-(1-picolinoylpiperidin-4-yl)-1H-pyrazol-4-yl)methyl)benzo[cd]indol-1(2H)-yl)piperidine-2,6-dione]: less than 1 nM.
The same measure for `O=C1CCC(N2C(=O)c3cccc4c(Cc5cnn(C6CCN(CC7(C(F)(F)F)CC7)CC6)c5)ccc2c34)C(=O)N1` (stereo not drawn) [Compound 62, 3-(2-oxo-6-((1-(1-((1-(trifluoromethyl)cyclopropyl)methyl)piperidin-4-yl)-1H-pyrazol-4-yl)methyl)benzo[cd]indol-1(2H)-yl)piperidine-2,6-dione]: less than 1 nM; for `N#Cc1ccc(N2CCN(Cc3ccnn3Cc3ccc4c5c(cccc35)C(=O)N4C3CCC(=O)NC3=O)CC2)c(F)c1` (stereo not drawn) [Compound 209, 4-(4-((1-((1-(2,6-dioxopiperidin-3-yl)-2-oxo-1,2-dihydrobenzo[cd]indol-6-yl)methyl)-1-H-pyrazol-5-yl)methyl)piperazin-1-yl)-3-fluorobenzonitrile]: less than 100 nM.
As to `CC(C)(O)C1CCN(Cc2ccc(Cc3ccc4c5c(cccc35)C(=O)N4C3CCC(=O)NC3=O)cc2)CC1` (stereo not drawn) [Compound 232, 3-(6-(4-((4-(2-hydroxypropan-2-yl)piperidin-1-yl)methyl)benzyl)-2-oxobenzo[cd]indol-1(2H)-yl)piperidine-2,6-dione], the IC50 is less than 1 nM.
With `CC1(CN2CCC(n3cc(Cc4ccc5c6c(cccc46)C(=O)N5C4CCC(=O)NC4=O)cn3)CC23CC3)CCC1` (stereo not drawn) [Compound 275, 3-[6-[[1-[4-[(1-methylcyclobutyl)methyl]-4-azaspiro[2.5]octan-7-yl]pyrazol-4-yl]methyl]-2-oxo-benzo[cd]indol-1-yl]piperidine-2,6-dione], the IC50 is less than 1 nM.
`Cc1cc(Cc2ccc3c4c(cccc24)C(=O)N3C2CCC(=O)NC2=O)ccc1CN1CCN(c2ccccc2F)CC1` (stereo not drawn) [Compound 286, 3-[6-[[4-[[4-(2-fluorophenyl)piperazin-1-yl]methyl]-3-methyl-phenyl]methyl]-2-oxo-benzo[cd]indol-1-yl]piperidine-2,6-dione]: the IC50 was less than 1 nM.
Under `O=C1CCC(N2C(=O)c3cccc4c(Cc5cnn(C6CCN(C(=O)C7(C(F)(F)F)CCC7)CC6)c5)ccc2c34)C(=O)N1` (stereo not drawn) [Compound 51, 3-(2-oxo-6-((1-(1-(1-(trifluoromethyl)cyclobutane-1-carbonyl)piperidin-4-yl)-1H-pyrazol-4-yl)methyl)benzo[cd]indol-1(2H)-yl)piperidine-2,6-dione] stands less than 1 nM; under `CC12CC(C(=O)N3CCC(C)(n4cc(Cc5ccc6c7c(cccc57)C(=O)N6C5CCC(=O)NC5=O)cn4)CC3)(CCO1)C2` (stereo not drawn) [Compound 88, 3-(6-((1-(4-methyl-1-(1-methyl-2-oxabicyclo[3.1.1]heptane-5-carbonyl)piperidin-4-yl)-1H-pyrazol-4-yl)methyl)-2-oxobenzo[cd]indol-1(2H)-yl)piperidine-2,6-dione], less than 1 nM.
`CC(C)(C)OC1CCC(n2cc(Cc3ccc4c5c(cccc35)C(=O)N4C3CCC(=O)NC3=O)cn2)CC1` (stereo not drawn) [Compound 212, 3-[6-[[1-(4-tert-butoxycyclohexyl)pyrazol-4-yl]methyl]-2-oxo-benzo[cd]indol-1-yl]piperidine-2,6-dione]: the IC50 was less than 1 nM.
Turning to `CC1(C(=O)N2CCC(C)(n3cc(Cc4ccc5c6c(cccc46)C(=O)N5C4CCC(=O)NC4=O)cn3)CC2)COC1` (stereo not drawn) [Compound 94, 3-(6-((1-(4-methyl-1-(3-methyloxetane-3-carbonyl)piperidin-4-yl)-1H-pyrazol-4-yl)methyl)-2-oxobenzo[cd]indol-1(2H)-yl)piperidine-2,6-dione], the IC50 was less than 1 nM.
Under `CC(C)(C)CN1CCC(C)(n2cc(Cc3ccc4c5c(cccc35)C(=O)N4C3CCC(=O)NC3=O)cn2)CC1` (stereo not drawn) [Compound 104, 3-(6-((1-(4-methyl-1-neopentylpiperidin-4-yl)-1H-pyrazol-4-yl)methyl)-2-oxobenzo[cd]indol-1(2H)-yl)piperidine-2,6-dione] stands less than 1 nM.
`CC1(C(=O)N2CCC(n3cc(Nc4ccc5c6c(cccc46)C(=O)N5C4CCC(=O)NC4=O)cn3)CC2)CCC1` (stereo not drawn) [Compound 249, 3-[6-[[1-[1-(1-methylcyclobutanecarbonyl)-4-piperidyl]pyrazol-4-yl]amino]-2-oxo-benzo[cd]indol-1-yl]piperidine-2,6-dione]: the IC50 is less than 100 nM.
Under `O=C1CCC(N2C(=O)c3cccc4c(Cc5ccc(CN6CCC7(CCCO7)CC6)cc5)ccc2c34)C(=O)N1` (single isomer, unassigned) [Compound 217, 3-[6-[[4-(1-oxa-8-azaspiro[4.5]decan-8-ylmethyl)phenyl]methyl]-2-oxo-benzo[cd]indol-1-yl]piperidine-2,6-dione] stands less than 1 nM; under `CC1(C(=O)N2CCC(n3cc(Cc4ccc5c6c(cccc46)C(=O)N5C4CCC(=O)NC4=O)cn3)CC2)CCOCC1` (stereo not drawn) [Compound 41, 3-(6-((1-(1-(4-methyltetrahydro-2H-pyran-4-carbonyl)piperidin-4-yl)-1H-pyrazol-4-yl)methyl)-2-oxobenzo[cd]indol-1(2H)-yl)piperidine-2,6-dione], less than 1 nM.
Regarding `CC1(n2cc(Cc3ccc4c5c(cccc35)C(=O)N4C3CCC(=O)NC3=O)cn2)CCN(C(=O)C2(C#N)CC2)CC1` (stereo not drawn) [Compound 79, 1-(4-(4-((1-(2,6-dioxopiperidin-3-yl)-2-oxo-1,2-dihydrobenzo[cd]indol-6-yl)methyl)-1H-pyrazol-1-yl)-4-methylpiperidine-1-carbonyl)cyclopropane-1-carbonitrile], the IC50 is less than 1 nM.
On to `O=C1CCC(N2C(=O)c3cccc4c(Cc5ccc(CN6CCC7(CCCCC7)CC6)cc5)ccc2c34)C(=O)N1` (stereo not drawn) [Compound 224, 3-(6-(4-((3-azaspiro[5.5]undecan-3-yl)methyl)benzyl)-2-oxobenzo[cd]indol-1(2H)-yl)piperidine-2,6-dione], for which the IC50 is less than 1 nM.
Under `CC(C)(CF)C(=O)N1CCC(C)(n2cc(Cc3ccc4c5c(cccc35)C(=O)N4C3CCC(=O)NC3=O)cn2)CC1` (stereo not drawn) [Compound 95, 3-(6-((1-(1-(3-fluoro-2,2-dimethylpropanoyl)-4-methylpiperidin-4-yl)-1H-pyrazol-4-yl)methyl)-2-oxobenzo[cd]indol-1(2H)-yl)piperidine-2,6-dione] stands less than 1 nM; under `CC1(c2cn(Cc3ccc4c5c(cccc35)C(=O)N4C3CCC(=O)NC3=O)nn2)CCN(C(=O)C2(C(F)(F)F)CC2)CC1` (stereo not drawn) [Compound 127, 3-[6-[[4-[4-methyl-1-[1-(trifluoromethyl)cyclopropanecarbonyl]-4-piperidyl]triazol-1-yl]methyl]-2-oxo-benzo[cd]indol-1-yl]piperidine-2,6-dione], less than 1 nM.
For `O=C1CCC(N2C(=O)c3cccc4c(Cc5cnn(C6CCN(C(=O)C7(CO)CCC7)CC6)c5)ccc2c34)C(=O)N1` (stereo not drawn) [Compound 205, 3-[6-[[1-[1-[1-(hydroxymethyl)cyclobutanecarbonyl]-4-piperidyl]pyrazol-4-yl]methyl]-2-oxo-benzo[cd]indol-1-yl]piperidine-2,6-dione], the IC50 was less than 1 nM.
Regarding `O=C1CCC(N2C(=O)c3cccc4c(Cc5ccc(CN6CCOCC6)nc5)ccc2c34)C(=O)N1` (stereo not drawn) [Compound 269, 3-[6-[[6-(morpholinomethyl)-3-pyridyl]methyl]-2-oxo-benzo[cd]indol-1-yl]piperidine-2,6-dione], the IC50 was less than 1 nM.
For `CC1(n2cc(Cc3ccc4c5c(cccc35)C(=O)N4C3CCC(=O)NC3=O)cn2)CCN(C(=O)C23CCN(CC2)CC3)CC1` (stereo not drawn) [Compound 73, 3-(6-((l-(4-methyl-1-(quinuclidine-4-carbonyl)piperidin-4-yl)-1H-pyrazol-4-yl)methyl)-2-oxobenzo[cd]indol-1(2H)-yl)piperidine-2,6-dione], the IC50 is less than 100 nM.
For `CC1(C(=O)N2CCC(n3cc(S(=O)(=O)c4ccc5c6c(cccc46)C(=O)N5C4CCC(=O)NC4=O)cn3)CC2)CCC1` (stereo not drawn) [Compound 175, 3-[6-[1-[1-(1-methylcyclobutanecarbonyl)-4-piperidyl]pyrazol-4-yl]sulfonyl-2-oxo-benzo[cd]indol-1-yl]piperidine-2,6-dione], the IC50 is less than 100 nM.
Take `O=C1CCC(N2C(=O)c3cccc4c(Cc5cnn(C6CC(OCc7ccccc7)C6)c5)ccc2c34)C(=O)N1` (stereo not drawn) [Compound 177, 3-[6-[[1-(3-benzyloxycyclobutyl)pyrazol-4-yl]methyl]-2-oxo-benzo[cd]indol-1-yl]piperidine-2,6-dione]: the IC50 is less than 100 nM.
Take `CC1(C(=O)N2CCN(c3cnn(Cc4ccc5c6c(cccc46)C(=O)N5C4CCC(=O)NC4=O)c3)CC2)CCC1` (stereo not drawn) [Compound 246, 3-(6-((4-(4-(1-methylcyclobutane-1-carbonyl)piperazin-1-yl)-1H-pyrazol-1-yl)methyl)-2-oxobenzo[cd]indol-1(2H)-yl)piperidine-2,6-dione]: the IC50 is less than 1 nM.
As for `CC(C1CC1)N1CCC(n2cc(Cc3ccc4c5c(cccc35)C(=O)N4C3CCC(=O)NC3=O)cn2)CC1` (single isomer, unassigned) [Compound 282, 3-(6-((1-(1-(1-cyclopropylethyl)piperidin-4-yl)-1H-pyrazol-4-yl)methyl)-2-oxobenzo[cd]indol-1(2H)-yl)piperidine-2,6-dione], the IC50 was less than 1 nM.

The record behind these values is US20230082430A1 (C4 Therapeutics, Inc., priority 2019, published 2023).
